Test results taken from PMC8042770, “Odorant Receptors for Detecting Flowering Plant Cues Are Functionally Conserved across Moths and Butterflies” (Molecular Biology and Evolution, 2020).
Blank lines part the entries; values can stand above or below the molecule they belong to.

What was measured:
Format in all cases: cell-based
[1] = target: HarmOR67 (Helicoverpa armigera, UniProt A0A7T3KAH1); test: Xenopus oocyte two-electrode voltage clamp, HarmOR67 + Orco; settings: dose response in oocytes, unit M
Sequence of HarmOR67 (A0A7T3KAH1 entry or part of it): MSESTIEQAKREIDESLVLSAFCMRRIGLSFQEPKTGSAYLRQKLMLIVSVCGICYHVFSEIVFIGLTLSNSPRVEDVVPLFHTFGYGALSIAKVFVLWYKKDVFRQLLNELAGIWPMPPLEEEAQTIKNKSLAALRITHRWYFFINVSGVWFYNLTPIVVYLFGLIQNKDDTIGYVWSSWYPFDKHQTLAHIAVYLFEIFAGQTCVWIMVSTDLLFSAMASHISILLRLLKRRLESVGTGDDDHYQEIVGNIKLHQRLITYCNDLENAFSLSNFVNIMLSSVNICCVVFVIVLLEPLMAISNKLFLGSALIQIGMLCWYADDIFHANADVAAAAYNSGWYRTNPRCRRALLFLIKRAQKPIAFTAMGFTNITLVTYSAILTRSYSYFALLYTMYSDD
Protocol: (§1) In order to expand our analysis on the response properties of HarmORs, we conducted dose–response analyses for the 28 functional HarmORs. […] Six HarmORs (OR3, 22, 48, 50, 56, and 66) could not be activated by any ligand at 10^−5 M. For the other 22 HarmORs, dose–response curves were generated and EC50 values of their major ligands were calculated (fig. 2A and supplementary table S2, Supplementary Material online). The HarmOR repertoire was highly efficient in terpene detection, since the lowest EC50 values were obtained for such compounds. Many of these terpenes have been proposed to be defensive chemicals of plants. […] DMNT is also one of the oviposition deterring compounds found in larval frass of some Lepidoptera species such as S. littoralis ([Anderson et al. 1993]).
(§2) Functional characterization of individual ORs was performed by heterologous expression in Xenopus oocytes combined with a two-electrode voltage-clamp system ([Wang et al. 2010]). Briefly, the full-length gene of each OR and Orco were subcloned into the eukaryotic expression vector pT7TS. cRNAs were generated from linearized expression vectors using the mMESSAGE mMACHINE T7 kit (Ambion, Austin, TX). Then, the cRNA mixture of ORx and Orco (27.6 ng each) was injected (Nanoliter 2010, WPI Inc., Sarasota, FL) into oocytes (stage V–VII). The respective Orcos of different species were used for functional studies of OR42 orthologs except for the four butterfly species (V. tameamea, P. xuthus, D. plexippus, and P. rapae), in which we used the Orco from P. xuthus. After incubation in nutrient solution at 18 °C for 3–5 days, the response profile of each oocyte to multiple plant odorants was recorded via a two-electrode voltage clamp (OC-725C oocyte clamp, Warner Instruments, Hamden, CT) at a holding potential of −80 mV. Data were acquired by using a Digidata 1440 A and were analyzed by pCLAMP 10.2 software (Axon Instruments Inc., Union City, CA). […]

[2] = target: HarmOR31 (Helicoverpa armigera, UniProt A0A7T3N2E9); test: Xenopus oocyte two-electrode voltage clamp, HarmOR31 + Orco; settings: HarmOR31; dose response in oocytes; unit M; read-out: EC50
Sequence of HarmOR31 (A0A7T3N2E9 entry or part of it): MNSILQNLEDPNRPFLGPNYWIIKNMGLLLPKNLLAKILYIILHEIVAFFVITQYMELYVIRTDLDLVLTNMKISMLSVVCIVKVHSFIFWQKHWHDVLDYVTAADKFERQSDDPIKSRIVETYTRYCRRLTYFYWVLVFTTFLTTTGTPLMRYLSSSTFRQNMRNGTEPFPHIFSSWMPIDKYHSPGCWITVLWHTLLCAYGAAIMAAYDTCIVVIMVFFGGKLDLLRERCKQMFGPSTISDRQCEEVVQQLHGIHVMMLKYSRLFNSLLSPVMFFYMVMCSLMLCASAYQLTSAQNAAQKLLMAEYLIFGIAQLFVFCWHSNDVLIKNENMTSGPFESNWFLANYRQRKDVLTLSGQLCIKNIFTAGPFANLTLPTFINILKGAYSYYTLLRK
Description: In order to expand our analysis on the response properties of HarmORs, we conducted dose–response analyses for the 28 functional HarmORs. […] Many of these terpenes have been proposed to be defensive chemicals of plants.
Briefly, the full-length gene of each OR and Orco were subcloned into the eukaryotic expression vector pT7TS. cRNAs were generated from linearized expression vectors using the mMESSAGE mMACHINE T7 kit (Ambion, Austin, TX). […] The respective Orcos of different species were used for functional studies of OR42 orthologs except for the four butterfly species (V. tameamea, P. xuthus, D. plexippus, and P. rapae), in which we used the Orco from P. xuthus.
(§3) Stock solutions of each odorant were prepared at 1 M using DMSO as a solvent, and each odorant was diluted in 1× Ringer’s solution to the indicated concentrations for electrophysiological recording. For functional screening of each HarmOR, a panel of 67 odorants belonging to three types of chemical classes: terpenes, aromatics, and aliphatics (short-chain fatty acid) were used (supplementary table S1, Supplementary Material online). For functional studies of OR42 orthologs from different species, six odorants including PAA, benzaldehyde, (E)-2-hexen-1-al, cinnamaldehyde, 2-phenylethanol, and heptanal were used.

[3] = target: T1, HarmOR19 (Helicoverpa armigera, UniProt A0A7T3N0J7); test: Xenopus oocyte two-electrode voltage clamp, HarmOR19 + Orco; settings: dose response in oocytes, unit M
T1 sequence (A0A7T3N0J7 1-402): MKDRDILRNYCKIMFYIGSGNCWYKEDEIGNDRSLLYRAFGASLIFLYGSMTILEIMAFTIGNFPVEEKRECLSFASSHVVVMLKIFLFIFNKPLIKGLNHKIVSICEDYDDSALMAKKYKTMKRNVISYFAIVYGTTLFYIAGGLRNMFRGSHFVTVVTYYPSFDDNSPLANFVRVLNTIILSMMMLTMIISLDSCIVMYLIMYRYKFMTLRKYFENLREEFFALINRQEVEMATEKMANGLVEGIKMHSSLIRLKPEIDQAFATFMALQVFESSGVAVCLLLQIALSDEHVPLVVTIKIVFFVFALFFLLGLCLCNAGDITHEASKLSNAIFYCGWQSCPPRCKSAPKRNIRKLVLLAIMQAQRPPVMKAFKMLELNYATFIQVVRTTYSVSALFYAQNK
Protocol: as §1, §2

[4] = target: HarmOR35 (Helicoverpa armigera, UniProt A0A7T3N1A8); test: Xenopus oocyte two-electrode voltage clamp, HarmOR35 + Orco; settings: HarmOR35; dose response in oocytes; unit M; read-out: EC50
Sequence of HarmOR35 (A0A7T3N1A8 entry or part of it): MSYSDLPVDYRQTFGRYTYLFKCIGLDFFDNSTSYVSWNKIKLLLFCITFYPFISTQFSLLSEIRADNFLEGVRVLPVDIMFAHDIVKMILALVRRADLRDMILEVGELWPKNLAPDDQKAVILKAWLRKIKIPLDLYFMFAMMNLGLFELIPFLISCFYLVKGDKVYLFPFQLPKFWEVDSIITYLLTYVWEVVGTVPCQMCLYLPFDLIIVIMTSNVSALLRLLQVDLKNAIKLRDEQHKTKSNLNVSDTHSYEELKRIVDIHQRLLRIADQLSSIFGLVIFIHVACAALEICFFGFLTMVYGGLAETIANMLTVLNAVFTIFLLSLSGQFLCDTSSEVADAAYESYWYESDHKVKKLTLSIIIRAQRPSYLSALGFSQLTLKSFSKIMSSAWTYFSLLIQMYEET
Protocol: as §1
(§4) Functional characterization of individual ORs was performed by heterologous expression in Xenopus oocytes combined with a two-electrode voltage-clamp system ([Wang et al. 2010]). […] After incubation in nutrient solution at 18 °C for 3–5 days, the response profile of each oocyte to multiple plant odorants was recorded via a two-electrode voltage clamp (OC-725C oocyte clamp, Warner Instruments, Hamden, CT) at a holding potential of −80 mV. Data were acquired by using a Digidata 1440 A and were analyzed by pCLAMP 10.2 software (Axon Instruments Inc., Union City, CA). […]

[5] = target: HarmOR59 (Helicoverpa armigera, UniProt A0A7T3KAU6); test: Xenopus oocyte two-electrode voltage clamp, HarmOR59 + Orco
Sequence of HarmOR59 (A0A7T3KAU6 entry or part of it): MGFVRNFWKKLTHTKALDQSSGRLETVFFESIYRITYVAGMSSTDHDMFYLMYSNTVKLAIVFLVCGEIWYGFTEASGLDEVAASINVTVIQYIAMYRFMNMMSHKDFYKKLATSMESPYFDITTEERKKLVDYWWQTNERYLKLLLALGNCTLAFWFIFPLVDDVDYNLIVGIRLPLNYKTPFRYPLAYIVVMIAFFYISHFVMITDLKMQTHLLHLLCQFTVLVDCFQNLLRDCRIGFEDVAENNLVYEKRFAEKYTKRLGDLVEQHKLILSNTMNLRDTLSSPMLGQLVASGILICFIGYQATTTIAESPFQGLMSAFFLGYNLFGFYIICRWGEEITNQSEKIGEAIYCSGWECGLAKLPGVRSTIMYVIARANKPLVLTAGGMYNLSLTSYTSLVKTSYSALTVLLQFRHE
Protocol: as §1
(§5) Functional characterization of individual ORs was performed by heterologous expression in Xenopus oocytes combined with a two-electrode voltage-clamp system ([Wang et al. 2010]). Briefly, the full-length gene of each OR and Orco were subcloned into the eukaryotic expression vector pT7TS. cRNAs were generated from linearized expression vectors using the mMESSAGE mMACHINE T7 kit (Ambion, Austin, TX). Then, the cRNA mixture of ORx and Orco (27.6 ng each) was injected (Nanoliter 2010, WPI Inc., Sarasota, FL) into oocytes (stage V–VII). The respective Orcos of different species were used for functional studies of OR42 orthologs except for the four butterfly species (V. tameamea, P. xuthus, D. plexippus, and P. rapae), in which we used the Orco from P. xuthus. After incubation in nutrient solution at 18 °C for 3–5 days, the response profile of each oocyte to multiple plant odorants was recorded via a two-electrode voltage clamp (OC-725C oocyte clamp, Warner Instruments, Hamden, CT) at a holding potential of −80 mV. Data were acquired by using a Digidata 1440 A and were analyzed by pCLAMP 10.2 software (Axon Instruments Inc., Union City, CA).
as §3

[6] = target: HarmOR10 (Helicoverpa armigera, UniProt A0A0G2RLT6); test: Xenopus oocyte two-electrode voltage clamp, HarmOR10 + Orco
Sequence of HarmOR10 (A0A0G2RLT6 1-390): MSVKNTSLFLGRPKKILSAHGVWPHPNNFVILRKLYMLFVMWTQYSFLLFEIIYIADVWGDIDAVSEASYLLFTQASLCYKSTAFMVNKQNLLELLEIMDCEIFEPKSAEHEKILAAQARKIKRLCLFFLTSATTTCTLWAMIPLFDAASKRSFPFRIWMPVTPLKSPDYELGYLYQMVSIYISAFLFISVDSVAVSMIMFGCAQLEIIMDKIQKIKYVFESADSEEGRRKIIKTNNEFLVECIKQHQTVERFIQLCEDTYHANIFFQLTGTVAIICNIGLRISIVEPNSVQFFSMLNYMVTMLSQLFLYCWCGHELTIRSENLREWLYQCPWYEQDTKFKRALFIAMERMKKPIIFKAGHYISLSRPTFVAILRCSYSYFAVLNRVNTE
Protocol: as §1, §4

[7] = target: T2, HarmOR27 (Helicoverpa armigera, UniProt A0A7T3KAG1); test: Xenopus oocyte two-electrode voltage clamp, HarmOR27 + Orco
T2 sequence (A0A7T3KAG1 1-426): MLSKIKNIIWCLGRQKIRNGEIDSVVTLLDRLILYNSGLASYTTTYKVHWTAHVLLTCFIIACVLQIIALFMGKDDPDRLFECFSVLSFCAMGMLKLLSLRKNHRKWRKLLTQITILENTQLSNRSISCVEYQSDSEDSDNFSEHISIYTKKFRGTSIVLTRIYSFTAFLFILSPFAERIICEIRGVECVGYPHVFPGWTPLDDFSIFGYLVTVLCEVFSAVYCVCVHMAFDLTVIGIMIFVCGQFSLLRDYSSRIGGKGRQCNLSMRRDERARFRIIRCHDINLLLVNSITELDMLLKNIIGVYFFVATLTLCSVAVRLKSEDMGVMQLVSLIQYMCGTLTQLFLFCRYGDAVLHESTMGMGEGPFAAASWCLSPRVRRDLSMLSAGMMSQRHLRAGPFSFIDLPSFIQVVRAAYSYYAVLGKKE
Protocol: as §1, §5, §3

Compound: CCc1ccc(C(C)=O)cc1 [4'-Ethylacetophenone]
EC50 [3]: 16.7 µM

Compound: O=Cc1ccccc1 [Benzaldehyde]
EC50 [5]: 12 µM | EC50 [6]: 124 µM | ligand tuning of HarmOR10 ([6]; 67 odorants at 10^−4 M): specific ligand

Compound: CCCCOC(=O)c1ccccc1O [Butyl salicylate]
response of HarmOR27 ([7]; odorant 10^−4 M): maximal response | response of HarmOR27 ([7]; odorant 10^−5 M): failed to evoke any current | EC50 [3]: 402 µM

The remaining lines, values ahead:

EC50 [1]: 218 µM
Compound: CCCCCCCO [1-Heptanol]

EC50 [1]: 33.1 µM | EC50 [2]: 96.1 µM
Compound: CCCCCCCCO [1-Octanol]

EC50 [4]: 255 µM
Compound: CC1(C)[C@H]2CC=C(C=O)[C@@H]1C2 [(1R)-(-)-Myrtenal]
